Usually MIC stands for the lowest concentration found to suppress growth. One may read the CC50 as the concentration that lowers cell viability or growth by half.

In brackets after ≈: the same amount, converted by molar mass. A value given as a limit tells only on which side of the number the result lay.

Series [1] relates to Escherichia coli. Description: Antibacterial activity against Escherichia coli ATCC 25922 assessed as bacterial growth inhibition incubated for 16 to 18 hrs by CLSI based susceptibility testing method. Particulars: time 16-18 hrs. The series is classed as functional.
In series [2] the test system is Staphylococcus aureus. Description: Antibacterial activity against Staphylococcus aureus ATCC 29213 assessed as bacterial growth inhibition incubated for 16 to 18 hrs by CLSI based susceptibility testing method. The series is classed as functional. Particulars: time 16-18 hrs.
Series [3] deals with Klebsiella pneumoniae. Description: Antibacterial activity against Klebsiella pneumoniae BAA 1705 assessed as bacterial growth inhibition incubated for 16 to 18 hrs by CLSI based susceptibility testing method. The series is classed as functional. Particulars: time 16-18 hrs.
Series [4] deals with Acinetobacter baumannii. Description: Antibacterial activity against Acinetobacter baumannii BAA 1605 assessed as bacterial growth inhibition incubated for 16 to 18 hrs by CLSI based susceptibility testing method. The series is classed as functional. Particulars: time 16-18 hrs.
Series [5] has as its system Pseudomonas aeruginosa. Description: Antibacterial activity against Pseudomonas aeruginosa ATCC 27853 assessed as bacterial growth inhibition incubated for 16 to 18 hrs by CLSI based susceptibility testing method. The series is classed as functional. Particulars: time 16-18 hrs.
In series [6] the test system is Mycobacterium tuberculosis. Description: Antimycobacterial activity against Mycobacterium tuberculosis H37Rv ATCC 27294 assessed as bacterial growth inhibition incubated for 7 days by resazurin dye based assay. The series is classed as functional. Particulars: H37Rv ATCC 27294, 168 h, time 7 day. (Resazurin is reduced to fluorescent resorufin, in cell work by metabolically active cells.)

Series [7] has as its system Mycobacteroides abscessus. Description: Antimycobacterial activity against Mycobacterium abscessus ATCC 19977 assessed as bacterial growth inhibition incubated for 7 days by resazurin dye based assay. The series is classed as functional. Particulars: ATCC 19977, 168 h, time 7 day.
Series [8] has as its system Mycolicibacterium fortuitum. Description: Antimycobacterial activity against Mycobacterium fortuitum ATCC 6841 assessed as bacterial growth inhibition incubated for 7 days by resazurin dye based assay. The series is classed as functional. Particulars: ATCC 6841, 168 h, time 7 day.
Series [9] concerns Mycobacteroides chelonae. Description: Antimycobacterial activity against Mycobacteroides chelonae ATCC 35752 assessed as bacterial growth inhibition incubated for 7 days by resazurin dye based assay. The series is classed as functional. Particulars: ATCC 35752, 168 h, time 7 day.
The nature of series [10]: Cytotoxicity against African green monkey Vero cells assessed as reduction in cell viability incubated for 72 hrs by MTT assay. The series is classed as toxicity, cell-based. Particulars: chlorocebus sabaeus. Background: Tetrazolium dyes change colour on reduction, which living cells bring about.
Series [11] can be described thus: Selectivity index, ratio of CC50 for African green monkey Vero cells to IC50 for Mycobacterium tuberculosis H37Rv ATCC 27294. Particulars: read-out: Selectivity Index. The series is classed as toxicity.
In series [12] the test system is Staphylococcus aureus. Description: Antibacterial activity against vancomycin-resistant Staphylococcus aureus VRS 1 clinical isolate assessed as bacterial growth inhibition incubated for 16 to 18 hrs by CLSI based susceptibility testing method. The series is classed as functional. Particulars: time 16-18 hrs.
Series [13] has as its system Staphylococcus aureus. Description: Antibacterial activity against vancomycin-resistant Staphylococcus aureus VRS 4 clinical isolate assessed as bacterial growth inhibition incubated for 16 to 18 hrs by CLSI based susceptibility testing method. The series is classed as functional. Particulars: time 16-18 hrs.
Series [14] relates to Staphylococcus aureus. Description: Antibacterial activity against vancomycin-resistant Staphylococcus aureus VRS 12 clinical isolate assessed as bacterial growth inhibition incubated for 16 to 18 hrs by CLSI based susceptibility testing method. The series is classed as functional. Particulars: time 16-18 hrs.
The test system of series [15] is Staphylococcus aureus. Description: Antibiofilm activity against Staphylococcus aureus ATCC 29213 assessed as reduction in biofilm formation at 10 times MIC incubated for 24 hrs by absorbance based assay relative to control. The series is classed as functional. Further details: scale not given: the % may be the effect or the level left.
Series [16] concerns Staphylococcus aureus. Description: Antibacterial activity against methicillin-sensitive Staphylococcus aureus ATCC 29213 clinical isolate assessed as bacterial growth inhibition incubated for 16 to 18 hrs by CLSI based susceptibility testing method. The series is classed as functional. Particulars: time 16-18 hrs.
Series [17] relates to Staphylococcus aureus. Description: Antibacterial activity against methicillin-resistant Staphylococcus aureus NR 100 clinical isolate assessed as bacterial growth inhibition incubated for 16 to 18 hrs by CLSI based susceptibility testing method. The series is classed as functional. Particulars: time 16-18 hrs.
In series [18] the test system is Staphylococcus aureus. Description: Antibacterial activity against methicillin-resistant Staphylococcus aureus NR 119 clinical isolate assessed as bacterial growth inhibition incubated for 16 to 18 hrs by CLSI based susceptibility testing method. The series is classed as functional. Particulars: time 16-18 hrs.
The test system of series [19] is Staphylococcus aureus. Description: Antibacterial activity against methicillin-resistant Staphylococcus aureus NR 129 clinical isolate assessed as bacterial growth inhibition incubated for 16 to 18 hrs by CLSI based susceptibility testing method. The series is classed as functional. Particulars: time 16-18 hrs.
The test system of series [20] is Staphylococcus aureus. Description: Antibacterial activity against methicillin-resistant Staphylococcus aureus NR 186 clinical isolate assessed as bacterial growth inhibition incubated for 16 to 18 hrs by CLSI based susceptibility testing method. Particulars: time 16-18 hrs. The series is classed as functional.
Series [21] relates to Staphylococcus aureus. Description: Antibacterial activity against methicillin-resistant Staphylococcus aureus NR 191 clinical isolate assessed as bacterial growth inhibition incubated for 16 to 18 hrs by CLSI based susceptibility testing method. The series is classed as functional. Particulars: time 16-18 hrs.
The subject of series [22] is Staphylococcus aureus. Description: Antibacterial activity against methicillin-resistant Staphylococcus aureus NR 192 clinical isolate assessed as bacterial growth inhibition incubated for 16 to 18 hrs by CLSI based susceptibility testing method. Particulars: time 16-18 hrs. The series is classed as functional.
Series [23] deals with Staphylococcus aureus. Description: Antibacterial activity against methicillin-resistant Staphylococcus aureus NR 193 clinical isolate assessed as bacterial growth inhibition incubated for 16 to 18 hrs by CLSI based susceptibility testing method. The series is classed as functional. Particulars: time 16-18 hrs.
In series [24] the test system is Staphylococcus aureus. Description: Antibacterial activity against methicillin-resistant Staphylococcus aureus NR 194 clinical isolate assessed as bacterial growth inhibition incubated for 16 to 18 hrs by CLSI based susceptibility testing method. The series is classed as functional. Particulars: time 16-18 hrs.
The test system of series [25] is Staphylococcus aureus. Description: Antibacterial activity against methicillin-resistant Staphylococcus aureus NR 198 clinical isolate assessed as bacterial growth inhibition incubated for 16 to 18 hrs by CLSI based susceptibility testing method. The series is classed as functional. Particulars: time 16-18 hrs.
Series [26] is described as follows: Selectivity index, ratio of CC50 for African green monkey Vero cells to IC50 for Staphylococcus aureus ATCC 29213. Particulars: read-out: Selectivity Index. The series is classed as toxicity.

On to `Cc1ccc(-n2c(C)cc(/C=C3\S/C(=N/c4nccs4)NC3=O)c2C)cc1C`, for which the minimum inhibitory concentration (MIC) in [1] was over 64 mg/L; in [2], 16 mg/L (≈ 39.2 µM); in series [3], over 64 mg/L; in [4], over 64 mg/L; in [5] it was over 64 mg/L; in [6] it was 0.5 mg/L (≈ 1.22 µM). In addition, the MIC in series [7], in series [8] and in series [9] was over 64 mg/L throughout. Moreover, the CC50 at 72 h in series [10] is 40 mg/L (≈ 97.9 µM). Also, in [11], the selectivity ratio is 80.

In the case of `CN[C@H](CC(C)C)C(=O)N[C@H]1C(=O)N[C@@H](CC(N)=O)C(=O)N[C@H]2C(=O)N[C@H]3C(=O)N[C@H](C(=O)N[C@H](C(=O)O)c4cc(O)cc(O)c4-c4cc3ccc4O)[C@H](O)c3ccc(c(Cl)c3)Oc3cc2cc(c3O[C@@H]2O[C@H](CO)[C@@H](O)[C@H](O)[C@H]2O[C@H]2C[C@](C)(N)[C@H](O)[C@H](C)O2)Oc2ccc(cc2Cl)[C@H]1O` [VANCOMYCIN], the minimal inhibitory concentration (MIC) in [12], in [13] and in series [14] was over 64 mg/L each time. Moreover, the Activity in series [15] came out at 7.7%.

In the case of `C[C@@H](O)[C@H]1C(=O)N2C(C(=O)O)=C(S[C@@H]3CN[C@H](C(=O)N(C)C)C3)[C@H](C)[C@H]12` [MEROPENEM], the MIC in series [16] was 0.125 mg/L (≈ 0.326 µM); in series [17], 32 mg/L (≈ 83.4 µM); in series [18] it was 64 mg/L (≈ 167 µM); in [19], 2 mg/L (≈ 5.22 µM); in series [20], 4 mg/L (≈ 10.4 µM); in [21], 32 mg/L (≈ 83.4 µM). The minimum inhibitory concentration (MIC) was 8 mg/L (≈ 20.9 µM) in series [22]; 64 mg/L (≈ 167 µM) in series [23]; 1 mg/L (≈ 2.61 µM) in series [24]; 32 mg/L (≈ 83.4 µM) in [25]; 64 mg/L (≈ 167 µM) in series [12]; 32 mg/L (≈ 83.4 µM) in series [13]. Besides, the minimal inhibitory concentration (MIC) in series [14] was 4 mg/L (≈ 10.4 µM).

With `COc1ccccc1-n1c(C)cc(/C=C2\S/C(=N/c3nccs3)NC2=O)c1C`, the MIC in [1] is over 64 mg/L; in [2], 0.5 mg/L (≈ 1.22 µM); in series [3], over 64 mg/L; in [4], over 64 mg/L; in [5] it was over 64 mg/L; in series [6], 2 mg/L (≈ 4.87 µM). Further, the MIC was over 64 mg/L in series [7]; over 64 mg/L in series [8]; over 64 mg/L in series [9]; 0.5 mg/L (≈ 1.22 µM) in series [16]; 1 mg/L (≈ 2.44 µM) in series [17]; 2 mg/L (≈ 4.87 µM) in series [18]. Moreover, the MIC is 2 mg/L (≈ 4.87 µM) in series [19]; 1 mg/L (≈ 2.44 µM) in [20]; 2 mg/L (≈ 4.87 µM) in [21]; 2 mg/L (≈ 4.87 µM) in series [22]; 2 mg/L (≈ 4.87 µM) in series [23]; 2 mg/L (≈ 4.87 µM) in series [24]. Further, the MIC in series [25], in series [12], in [13] and in series [14] was 2 mg/L (≈ 4.87 µM) in each case. The CC50 at 72 h in series [10] is 40 mg/L (≈ 97.4 µM). The selectivity ratio in [26] turned out to be 80. Moreover, the Activity in series [15] is on record as over 11%.

As to `COc1cccc(OC)c1C(=O)N[C@@H]1C(=O)N2[C@@H]1SC(C)(C)[C@@H]2C(=O)O` [METHICILLIN], the MIC in series [16] was 1 mg/L (≈ 2.63 µM); in series [17], over 64 mg/L; in [18] it was over 64 mg/L; in series [19], 32 mg/L (≈ 84.1 µM); in series [20], 64 mg/L (≈ 168 µM); in series [21], over 64 mg/L. Besides, the minimum inhibitory concentration (MIC) in [22] was over 64 mg/L; in series [23], over 64 mg/L; in series [24], 32 mg/L (≈ 84.1 µM); in series [25], over 64 mg/L; in series [12], over 64 mg/L; in series [13], over 64 mg/L. Further, the MIC in series [14] is over 64 mg/L.
